We go through 104 compounds from PubChem BioAssay AID1549 (Sanford-Burnham Center for Chemical Genomics, 2009).

Molecules are shown by their SMILES. Active and inactive are the calls of the source. The rule behind the calls is not given here.

In this assay the target is Influenza A virus M2 proton channel (A/TW/4845/1999 H1N1). The assay is described as follows: NMR binding screen, influenza A virus M2 proton channel, Kd (AID 1549). The note with it: M2 protein.
As to `C[C@H]1C[C@@H](O)[C@]2(O)[C@@]13CC(=O)OC[C@@]2(C)[C@](C)(O)C(=O)C3`, the Kd – broadly, a measure of binding affinity in units of concentration – is > 4 mM (inactive). The figure for `Cc1occc1C(=O)NCc1ccccc1F` is > 4 mM (inactive); for `COc1ccc(/C=C2/SC(N)=NC2=O)c(OC)c1` it is > 4 mM (inactive).

For the compound `CN(C)C(=O)C12CCC(C)(C(=O)O1)C2(C)C` (centres undefined), the Kd is > 4 mM (inactive).

As for `OCC1CCCCCN1` (centres undefined), the Kd is > 4 mM (inactive). The figure for `Cn1ncc2c(=O)n(CC(=O)c3ccccc3)cnc21` is > 4 mM (inactive). To `[O-][n+]1onc2c1CCc1c-2nn(-c2ccccc2)[n+]1[O-]` belongs > 4 mM (inactive); to `OC[C@@H](O)[C@@H](O[C@@H]1O[C@H](CO)[C@@H](O)[C@H](O)[C@H]1O)[C@H](O)[C@@H](O)CO`, > 4 mM (inactive); to `NC(=O)c1ccccc1NC(=O)C1CC1`, > 4 mM (inactive). With `NC1CSCC1O` (centres undefined), the Kd was > 4 mM (inactive).

In the case of `CC1(C)CC2(CCO1)NCCN1C(=O)CSC12` (centres undefined), the Kd is > 4 mM (inactive). To `Cc1cccc(C)c1NC(=O)/C=C/C(=O)O` belongs > 4 mM (inactive); to `CC(C)CCCC1(C)C=Cc2c(O)c3c(c(CCC(C)C)c2O1)OC12C(CC4CC1C(C)(C)OC2(CCC(C)C(=O)O)C4O)C3=O` (centres undefined), > 4 mM (inactive). To `NCCCCN=C(N)N` belongs > 4 mM (inactive); to `COc1cc([C@@H]2c3cc4c(cc3[C@H](OC(C)=O)[C@H]3COC(=O)[C@H]23)OCO4)cc(OC)c1OC`, > 4 mM (inactive); to `CON(C)C(=O)Nc1ccc(Cl)cc1`, > 4 mM (inactive). To `Cc1occc1C(=O)N1CCN(S(C)(=O)=O)CC1` belongs > 4 mM (inactive); to `Oc1ccc2nonc2c1`, > 4 mM (inactive); to `CC(=O)Oc1cc2c(C(C)=O)coc2c2ccccc12`, > 4 mM (inactive). With `CC(=O)c1cccc(NC(=O)NN2CCOCC2)c1`, the Kd was > 4 mM (inactive). Turning to `c1ccc(-n2nnnc2-n2cnc3ccccc32)cc1`, the Kd was > 4 mM (inactive). The figure for `COc1ccccc1NC(C)=O` is > 4 mM (inactive). Consider `Nc1cc(F)ccc1-n1ccnc1`, for which the Kd was > 4 mM (inactive).

In the case of `CN(C)S(=O)(=O)N1CCc2ccccc21`, the Kd was > 4 mM (inactive). The figure for `O=C1Cc2ccccc2N1c1ccccc1` is > 4 mM (inactive). As to `O=c1cccc2n1CC1CC2CN2CCCC[C@@H]12` (some centres undefined), the Kd is > 4 mM (inactive). With `c1ccc(NCc2nc(-c3ccccc3)no2)cc1`, the Kd was > 4 mM (inactive).

For `Nc1c(C(=O)O)sc2ncccc12`, the Kd is > 4 mM (inactive). The figure for `S=c1[nH]ncn1-c1ccccc1` is > 4 mM (inactive); for `O=C(CC1CCCCC1)N1CCN(c2ccccn2)CC1` it is > 4 mM (inactive). To `CCCC(=O)N1CCSCC1` belongs > 4 mM (inactive); to `O=C(Nc1cccc(Cl)c1)c1ccncc1`, > 4 mM (inactive). To `Cc1ccc(C)n1NC(=O)c1ccco1` belongs > 4 mM (inactive); to `CCOC(=O)Cc1nc2ccccc2[nH]1`, > 4 mM (inactive); to `CN(C)c1ccc2c(=O)[nH][nH]c(=O)c2c1`, > 4 mM (inactive). Regarding `C=C1CCC2[C@](C)(CO)[C@H](O)CC[C@@]2(C)[C@@H]1C/C=C1/C(=O)OC[C@H]1O` (some centres undefined), the Kd was > 4 mM (inactive). With `Cc1ccc(S(=O)(=O)CC(=O)N2CCCC2)cc1`, the Kd was > 4 mM (inactive). With `O=C(Oc1ccc2c(c1)CCC2)N1CCOCC1`, the Kd is > 4 mM (inactive). To `CSc1ncnc2nc[nH]c12` belongs > 4 mM (inactive). On to `COc1cc(/C=C2\SC(=S)NC2=O)ccc1O`, for which the Kd was > 4 mM (inactive).

Take `OCCCc1nc2ccc(C(F)(F)F)cc2[nH]1`: the Kd was > 4 mM (inactive). To `Cc1cc(C(=O)Nc2ccccn2)no1` belongs > 4 mM (inactive). Consider `CC(C)(C)C(=O)Nc1nnc(SCC(N)=O)s1`, for which the Kd is > 4 mM (inactive). The figure for `OCc1ccc2ncccc2c1` is > 4 mM (inactive); for `Cn1c(SCC(N)=O)nc2ccccc2c1=O` it is > 4 mM (inactive). As for `CC(=O)Nc1ccc(S(=O)(=O)N(C)C)cc1`, the Kd was > 4 mM (inactive). The figure for `CN(C)/C=N/S(=O)(=O)c1ccccc1` is > 4 mM (inactive). `Cc1nc2sccn2c1C(=O)O`: the Kd is > 4 mM (inactive). The figure for `O=C1NC(=S)N/C1=C/c1ccsc1` is > 4 mM (inactive); for `O=C(Nc1cccc2ncccc12)c1cccnc1` it is > 4 mM (inactive); for `C=CC(C1=CC(=O)C(OC)=CC1=O)c1ccccc1` (centres undefined) it is > 4 mM (inactive). As for `COc1ccc2cc3[n+](cc2c1OC)CCc1cc2c(cc1-3)OCO2`, the Kd is > 4 mM (inactive).

For `O=C1c2ccc(F)cc2C(=O)N1CO`, the Kd is > 4 mM (inactive).

Take `CCCS(=O)(=O)N1CCN(c2ccccc2F)CC1`: the Kd was > 4 mM (inactive). To `CC(C)(O)[C@@H]1[C@H]2OC(=O)[C@@H]1[C@]1(O)C[C@H]3O[C@]34C(=O)O[C@H]2[C@]14C` belongs > 4 mM (inactive).

`O=P(c1ccccc1)(c1ccccc1)C1CCOCC1`: the Kd is > 4 mM (inactive). The figure for `O=C1N/C(=N\c2ccccn2)SC1Cc1ccccc1` (centres undefined) is > 4 mM (inactive). `Nc1cccc(OC(F)(F)F)c1`: the Kd is > 4 mM (inactive). For the compound `CCCCCCCCCCCC1=C(O)C(=O)C=C(O)C1=O`, the Kd was > 4 mM (inactive). To `Cc1cc(C)n(-c2ccc(Cl)nn2)n1` belongs > 4 mM (inactive). The figure for `O=C(O)c1cn(-c2ccccc2)nc1-c1cccnc1` is > 4 mM (inactive); for `C[C@@H]1O[C@@H](O[C@H]2CC[C@]3(C=O)C4CC[C@]5(C)[C@@H](C6=CC(=O)OC6)CC[C@]5(O)C4CC[C@]3(O)C2)[C@H](O)[C@H](O)[C@H]1O` (some centres undefined) it is > 4 mM (inactive). To `COc1cc(N)ncn1` belongs > 4 mM (inactive); to `CSc1ccccc1C(=O)N1CCOCC1`, > 4 mM (inactive); to `CN(C)c1ccc(NC(=O)CC(C(=O)O)N(C)C)cc1` (centres undefined), > 4 mM (inactive). Turning to `O=C(Nc1cccnc1)c1cnn2cccnc12`, the Kd is > 4 mM (inactive). In the case of `O=C(O)CSc1nnc(-c2cccs2)o1`, the Kd is > 4 mM (inactive). The figure for `O=C(Nc1ccncc1)c1cncc(Br)c1` is > 4 mM (inactive); for `OC1COCc2nc3ccccc3n2C1` (centres undefined) it is > 4 mM (inactive). The figure for `Cc1nnc2ccc(N3CCCC3)nn12` is > 4 mM (inactive). To `Cc1cccc(-n2c(N)cc(=O)[nH]c2=S)c1C` belongs > 4 mM (inactive); to `COc1cc2c(cc1OC)C1Cc3ccc(OC)c(OC)c3CN1CC2` (centres undefined), > 4 mM (inactive); to `CCOC(=O)c1c(-c2ccncc2)csc1N`, > 4 mM (inactive). In the case of `CN1CC(=O)N=C1N`, the Kd was > 4 mM (inactive).

On to `Nc1ccc(NC(=O)c2ccco2)c(Cl)c1`, for which the Kd was > 4 mM (inactive). The figure for `COc1cc(O)c2c(=O)c(O)c(-c3ccc(O)c(O)c3)oc2c1` is > 4 mM (inactive); for `NC1Cc2ccccc2C1` it is > 4 mM (inactive). With `O=C(Nc1nncs1)c1c(F)cccc1F`, the Kd is > 4 mM (inactive). Regarding `NC1=NC(=O)/C(=C\c2cccnc2)S1`, the Kd is > 4 mM (inactive). For the compound `Cc1ccc(N2C(=O)CC(=O)NC2=O)cc1`, the Kd was > 4 mM (inactive). To `Nc1cccc(NC(=O)c2cccs2)c1` belongs > 4 mM (inactive); to `Cc1cc(NC(=O)CS(=O)(=O)c2ccccc2)no1`, > 4 mM (inactive); to `CSc1nnnn1-c1cccc(O)c1`, > 4 mM (inactive). For the compound `C=C1C(=O)O[C@@H]2C[C@@]3(C)CCC[C@H](C)C3=C[C@H]12`, the Kd is > 4 mM (inactive). Consider `O=C(Nc1ccc(F)cc1F)c1ccco1`, for which the Kd was > 4 mM (inactive). Turning to `Cc1nn(-c2ccccc2)nc1CO`, the Kd is > 4 mM (inactive).

Consider `O=C(O)Cc1n[nH]c(=O)c2ccccc12`, for which the Kd is > 4 mM (inactive).

As to `Nc1cccc(-c2cnco2)c1`, the Kd is > 4 mM (inactive). For `Cc1ccccc1C(=O)Nn1cnnc1`, the Kd is > 4 mM (inactive). To `Cc1cc(OC(=O)c2c(C)cc(O)cc2O)cc(O)c1C(=O)O` belongs > 4 mM (inactive); to `Cc1ccc(N2C(=O)CCC2=O)cc1`, > 4 mM (inactive); to `COC1=CC(=O)C(O)=C/C1=C\C=C\c1ccccc1`, > 4 mM (inactive).

Take `N[C@@H](Cc1cc(I)c(Oc2cc(I)c(O)c(I)c2)c(I)c1)C(=O)O`: the Kd was > 4 mM (inactive). `CN1CCC(NC(=S)NC2CC2)CC1`: the Kd is > 4 mM (inactive).

On to `COc1nc(C)ccc1-c1noc(-c2ccco2)n1`, for which the Kd was > 4 mM (inactive). For `Cc1nnc(SCc2ccc(F)cc2)s1`, the Kd was > 4 mM (inactive). The figure for `COc1ccccc1NC(=O)NC(N)=O` is > 4 mM (inactive); for `O=C(c1cc(-c2ccccc2)on1)N1CCCC1` it is > 4 mM (inactive). As to `COC(=O)/C(C)=C\CC12OC(C)(C)C3CC(C=C4C(=O)c5c(OC)c6c(c(CC=C(C)C)c5OC431)OC(C)(CCC=C(C)C)C=C6)C2=O` (centres undefined), the Kd is > 4 mM (inactive). To `Cc1cccc(N2CCN(C(=O)c3ccncc3)CC2)c1C` belongs > 4 mM (inactive); to `O=C(O)c1ccc2c(c1)OCO2`, > 4 mM (inactive).

Regarding `CN(Cc1nc2ccccc2n1C)S(C)(=O)=O`, the Kd is > 4 mM (inactive). The figure for `O=C(/C=C(\O)c1ccccc1)c1ccccc1O` is > 4 mM (inactive). Turning to `c1ccc(CN2CCC3(CC2)Nc2ccccc2CO3)cc1`, the Kd was > 4 mM (inactive).
